Assay results: patent publication US10683296B2, “TLR7 agonist trifluoroacetate salt and crystalline form B thereof, preparation methods and uses” (CHIA TAI TIANQING PHARMACEUTICAL GROUP CO., LTD., priority 2016, dated 2020)

Key:
[1] = target: T1, Toll-like receptor 8 (HEK-blue hTLR8 cell) (Homo sapiens, UniProt Q9NR97); assay: Toll-like receptor 8 in vitro receptor binding activity screen (HEK-blue hTLR8 cell, alkaline phosphatase reporter); assay type: cell-based; conditions: versus control GS-9620
T1 construct: host or cells: HEK-blue hTLR8 cell (HEK293-derived reporter line)
T1 sequence (Q9NR97 27-1041): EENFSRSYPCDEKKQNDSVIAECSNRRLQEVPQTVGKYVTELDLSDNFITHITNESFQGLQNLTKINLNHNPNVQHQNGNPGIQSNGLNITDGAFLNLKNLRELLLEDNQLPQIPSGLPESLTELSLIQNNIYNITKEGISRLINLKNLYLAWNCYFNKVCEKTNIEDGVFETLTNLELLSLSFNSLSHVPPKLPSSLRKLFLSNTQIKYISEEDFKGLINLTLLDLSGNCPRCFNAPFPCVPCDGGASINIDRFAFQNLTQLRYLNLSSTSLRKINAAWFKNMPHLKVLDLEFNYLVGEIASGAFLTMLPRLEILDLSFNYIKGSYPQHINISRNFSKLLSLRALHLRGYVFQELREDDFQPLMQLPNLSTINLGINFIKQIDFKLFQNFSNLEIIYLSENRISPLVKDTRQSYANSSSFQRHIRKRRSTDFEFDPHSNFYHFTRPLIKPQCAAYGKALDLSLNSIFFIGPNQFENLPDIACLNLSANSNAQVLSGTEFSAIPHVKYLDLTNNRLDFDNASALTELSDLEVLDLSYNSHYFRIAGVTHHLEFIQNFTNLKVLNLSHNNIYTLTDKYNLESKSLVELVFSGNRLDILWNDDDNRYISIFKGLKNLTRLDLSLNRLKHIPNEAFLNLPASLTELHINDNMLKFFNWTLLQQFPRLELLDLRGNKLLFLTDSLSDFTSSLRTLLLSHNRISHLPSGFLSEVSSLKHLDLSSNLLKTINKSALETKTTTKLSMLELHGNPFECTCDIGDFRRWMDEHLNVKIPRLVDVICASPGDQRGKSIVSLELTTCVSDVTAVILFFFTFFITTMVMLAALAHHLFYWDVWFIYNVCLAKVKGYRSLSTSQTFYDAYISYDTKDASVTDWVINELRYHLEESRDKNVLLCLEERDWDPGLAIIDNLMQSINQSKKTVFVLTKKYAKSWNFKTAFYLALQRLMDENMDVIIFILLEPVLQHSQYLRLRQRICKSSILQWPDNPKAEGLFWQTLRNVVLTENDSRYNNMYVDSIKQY
Description: (§1) • HEK-blue hTLR7 cell and HEK-blue hTLR8 cell (available from InvivoGen) • DMEM medium • heat inactivated fetal bovine serum • Anti Mycoplasma reagent Normocin™ • bleomycin • blasticidin
(§2) The structures of GS-9620 and R848 used are as follows, wherein the preparation of GS-9620 could be referred to the process disclosed in US20100143301; R848 was commercially available from ABGENT (IMG-2208, specification: 0.5 mg).
(§3) The compounds were gradient diluted with DMSO in 3-fold using liquid work station POD starting at a concentration of 10 mmol/L and 10 points were diluted (2nd column to 11th column, and each point was duplicated). At 12th column, 1 μL of 5 mg/mL positive compound R848 was added as positive control; and at 1st column, 1 μL of DMSO was added as negative control. Each well contained 1 μL of DMSO. • 2. The cells in culture flask were collected and the cell density was diluted to 250,000 cells/mL. • 3. 200 μL (50,000 cells/well) of cell suspension was added into prepared compound plate and the final concentration of DMSO in each well was 0.5%. • 4. The culture plates containing cells and the compounds were incubated in CO2 incubator for 24 h at 37° C., 5% CO2. • 5. […] After 1 h, the content of alkaline phosphatase in 20 μL of supernatant was determined using Microplate Reader OD650. • 7. […]

[2] = target: T2, Toll-like receptor 7 (HEK-blue hTLR7 cell) (Homo sapiens, UniProt Q9NYK1); assay: Toll-like receptor 7 in vitro receptor binding activity screen (HEK-blue hTLR7 cell, alkaline phosphatase reporter); assay type: cell-based; conditions: versus control GS-9620
T2 construct: host or cells: HEK-blue hTLR7 cell (HEK293-derived reporter line)
T2 sequence (Q9NYK1 27-1049): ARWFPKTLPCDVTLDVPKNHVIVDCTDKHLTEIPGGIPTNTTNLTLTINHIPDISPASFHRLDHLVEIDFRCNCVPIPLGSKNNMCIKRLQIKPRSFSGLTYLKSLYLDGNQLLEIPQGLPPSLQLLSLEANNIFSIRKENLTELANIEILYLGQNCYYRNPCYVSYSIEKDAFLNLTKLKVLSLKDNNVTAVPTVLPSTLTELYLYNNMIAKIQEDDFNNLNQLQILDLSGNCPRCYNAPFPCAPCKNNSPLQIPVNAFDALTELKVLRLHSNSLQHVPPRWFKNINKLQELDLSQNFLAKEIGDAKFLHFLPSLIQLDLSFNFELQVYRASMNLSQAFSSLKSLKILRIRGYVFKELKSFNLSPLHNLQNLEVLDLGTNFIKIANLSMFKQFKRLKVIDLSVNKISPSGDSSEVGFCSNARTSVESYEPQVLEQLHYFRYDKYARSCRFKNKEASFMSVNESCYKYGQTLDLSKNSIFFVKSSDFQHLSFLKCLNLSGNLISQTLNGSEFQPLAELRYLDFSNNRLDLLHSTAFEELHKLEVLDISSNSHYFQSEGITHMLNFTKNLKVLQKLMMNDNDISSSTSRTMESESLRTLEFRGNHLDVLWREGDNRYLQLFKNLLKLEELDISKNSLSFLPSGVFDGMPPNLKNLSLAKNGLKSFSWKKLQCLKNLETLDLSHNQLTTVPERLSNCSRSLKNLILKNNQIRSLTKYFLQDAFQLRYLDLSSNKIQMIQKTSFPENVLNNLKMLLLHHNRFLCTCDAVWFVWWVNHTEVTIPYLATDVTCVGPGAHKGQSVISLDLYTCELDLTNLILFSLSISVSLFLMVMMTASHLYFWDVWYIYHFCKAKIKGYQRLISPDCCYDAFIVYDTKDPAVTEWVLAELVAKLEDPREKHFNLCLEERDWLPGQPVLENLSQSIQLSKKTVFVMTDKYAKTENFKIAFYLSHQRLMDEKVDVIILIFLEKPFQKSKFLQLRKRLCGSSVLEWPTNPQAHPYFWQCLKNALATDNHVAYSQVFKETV
Description: as §1, §2, §3

[3] = test system: human peripheral blood mononuclear cells (PBMC); assay: Peripheral blood mononuclear cell cytokine stimulating test; assay type: cell-based; conditions: for TNF-α MEC / IFN-α MEC: human PBMC, 24 h, CBA flow cytometry; for IFN-α MEC: lowest drug concentration stimulating the production of 30 pg/mL of IFN-α
Description: The purpose of this example is to determine the expression level of cytokines 24 h after stimulation to human peripheral blood mononuclear cells (PBMC) with the compound of formula I.
The cell supernatant was assayed without dilution and the levels of IFN-α were directly determined. The compound of formula was firstly formulated into 20 mM DMSO stock solution and was gradient diluted with cell medium in 10-fold with the total number of 11 diluting points. The compounds in 9 diluting points (the highest concentration was 200 μmol/L) were added into 96-well plate with 50 μL in each well. Fresh human peripheral blood mononuclear cells were inoculated, with 150 μL in each well containing 450,000 cells. The cell culture plate was incubated in an incubator at 37° C., 5% CO2 for 24 h. After incubation, the culture plate was centrifuged at 1200 rpm for 5 min and the supernatant was collected and stored at −20° C. for determination. The determination of cytokine was performed using Cytometric Bead Array (CBA) of BD-Pharmingen on flow cytometer. Using the above determining method, the lowest drug concentration stimulating the production of 30 pg/mL of IFN-α was designated as the MEC value in the cytokine stimulating test.

[4] = Stability tests of crystal form B (high temperature, high humidity, light); assay type: physicochemical; conditions: general statement; no data of Examples 2-4 printed
Description: The crystal form B prepared in Example 1 was tested in the accelerated test under high temperature conditions for stability in accordance with Guidelines for the Stability Test of Pharmaceutical Ingredients and Pharmaceutical Preparations (Chinese Pharmacopoeia 2010 Appendix XIXC).
The crystal form B was placed in an open-clean container at 60° C. The samples were taken for test on day 10, day 20 and day 30, respectively. The results were compared with the initial test result on day 0.
The crystal form B prepared in Example 1 was tested in the accelerated test under high humidity conditions for stability in accordance with Guidelines for the Stability Test of Pharmaceutical Ingredients and Pharmaceutical Preparations (Chinese Pharmacopoeia 2010 Appendix XIXC).
The crystal form B was subjected to an accelerated test in a constant temperature and humidity vessel under the conditions of 40° C./75% humidity (open). The samples were taken for test on day 30, day 60 and day 90, respectively. The results were compared with the initial test result on day 0.
The crystal form B prepared in Example 1 under light conditions was tested for stability in accordance with Guidelines for the Stability Test of Pharmaceutical Ingredients and Pharmaceutical Preparations (Chinese Pharmacopoeia 2010 Appendix XIXC).
The crystal form B was placed in an illumination environment of 5000 Lx±500 Lx. […]

| SMILES | in vitro receptor binding activity to Toll-like receptor 8 compared with the control GS-9620 [1] | in vitro receptor binding activity to Toll-like receptor 7 compared with the control GS-9620 [2] | TNF-α MEC [3] | IFN-α MEC [3] | TNF-α inducing activity compared with the control GS-9620 ([3]; versus control GS-9620) | in vitro IFN-α inducing activity of PBMCs compared with the control GS-9620 ([3]; versus control GS-9620) | stability of the crystal form [4] |
| --- | --- | --- | --- | --- | --- | --- | --- |
| CCCCOc1nc(N)c2[nH]cc(Cc3ccc(CN4CCCC4)cc3)c2n1 [The compound of formula I, 2-butoxy-7-(4-(pyrrolidin-1-ylmethyl)benzyl)-5H-pyrrolo[3,2-d]pyrimidin-4-amine] | lower | higher | 500 nM | 5 nM | comparable | better |  |
| CCCCOc1nc(N)c2c(n1)N(Cc1cccc(CN3CCCC3)c1)CC(=O)N2 [GS-9620, reference compound] |  |  | 500 nM | 50 nM |  |  |  |
| CCCCOc1nc(N)c2[nH]cc(Cc3ccc(CN4CCCC4)cc3)c2n1.O=C(O)C(F)(F)F [Crystal Form B of Trifluoroacetate of 2-butoxy-7-(4-(pyrrolidin-1-ylmethyl)benzyl)-5H-pyrrolo[3,2-d]pyrimidin-4-amine] |  |  |  |  |  |  | good stability |
